Experimental data: article PMC3448946 (Biochemistry, 2011)
Read-outs that look alike come from different tables or passages of the source.

Columns and labels:
[1] = molecular target: T1, MSOX (monomeric sarcosine oxidase) (Bacillus sp., UniProt P40859); experiment: Spectral titration of MSOX; type: binding; conditions: for Kd: 50 mM potassium phosphate buffer
T1 sequence (P40859 1-390): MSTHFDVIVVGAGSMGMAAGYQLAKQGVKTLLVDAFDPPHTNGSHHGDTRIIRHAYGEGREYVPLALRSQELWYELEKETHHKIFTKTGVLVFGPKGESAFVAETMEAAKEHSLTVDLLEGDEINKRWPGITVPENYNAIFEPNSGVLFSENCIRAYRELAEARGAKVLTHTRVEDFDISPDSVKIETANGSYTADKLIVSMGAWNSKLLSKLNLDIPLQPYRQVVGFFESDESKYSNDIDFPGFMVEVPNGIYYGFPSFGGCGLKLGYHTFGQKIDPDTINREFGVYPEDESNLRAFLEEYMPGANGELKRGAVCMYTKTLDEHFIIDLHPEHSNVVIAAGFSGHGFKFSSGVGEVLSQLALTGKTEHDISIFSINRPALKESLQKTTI

[2] = molecular target: Lys265Met MSOX mutant (Bacillus sp., UniProt P40859, K266M); conditions: absorption spectrum of mutant unaffected by 2.0 M potassium chloride
[3] = molecular target: GOX (glucose oxidase) (Aspergillus niger, UniProt P13006); experiment: biochemical
Chain of GOX (glucose oxidase) (P13006 23-605 limits assumed): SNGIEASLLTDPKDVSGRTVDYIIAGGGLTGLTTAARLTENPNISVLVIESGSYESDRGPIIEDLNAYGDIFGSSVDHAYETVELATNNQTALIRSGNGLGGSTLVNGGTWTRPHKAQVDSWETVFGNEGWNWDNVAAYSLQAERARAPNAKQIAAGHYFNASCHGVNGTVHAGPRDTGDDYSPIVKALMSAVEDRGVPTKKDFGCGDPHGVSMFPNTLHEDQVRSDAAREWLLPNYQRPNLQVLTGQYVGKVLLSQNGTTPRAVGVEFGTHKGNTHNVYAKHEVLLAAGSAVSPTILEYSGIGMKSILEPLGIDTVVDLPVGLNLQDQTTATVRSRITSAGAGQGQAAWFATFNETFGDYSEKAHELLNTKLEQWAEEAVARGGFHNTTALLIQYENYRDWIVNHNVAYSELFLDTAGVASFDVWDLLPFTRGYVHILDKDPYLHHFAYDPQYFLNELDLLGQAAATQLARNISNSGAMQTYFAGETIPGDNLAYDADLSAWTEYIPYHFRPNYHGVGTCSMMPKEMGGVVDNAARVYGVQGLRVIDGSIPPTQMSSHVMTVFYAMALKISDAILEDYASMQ

[4] = molecular target: T2, reduced MSOX (Bacillus sp., UniProt P40859)
[5] = molecular target: T2, reduced MSOX; conditions: absence of chloride; cited from earlier work
[6] = molecular target: T2, reduced MSOX; experiment: biochemical

For `O=S(=O)([O-])[O-].[Na+].[Na+]` [sulfate, sodium sulfate], the “Binding of sulfate to MSOX” value ([1]; 667 mM sodium sulfate control for ionic strength) was “does not bind”.

For `Cl` [chloride], the “Chloride binding to Lys265Met MSOX” value [2] was “eliminates chloride binding”, the Kd [3] was 6.2 ± 0.1 mM and the “Chloride binding at oxygen activation site of reduced MSOX in solution” value [4] was “not bound”.

In the case of `O=O` [oxygen], the “Second-order rate constant for reaction of reduced MSOX with oxygen” value [5] is listed as 2.83 ± 0.07 × 10^5 M^−1 s^−1, the Kd [6] is listed as no less than 10 mM and the “Second-order rate constant for reaction of reduced MSOX with oxygen” value ([4]; 50 mM potassium phosphate, pH 8.0, 2.0 M potassium chloride, 25 °C, monitored at 454 nm) is listed as 2.48 ± 0.03 × 10^5 M^−1 s^−1.

Molecule `CSCC(=O)O` [MTA, methylthioacetate] has a Kd ([1]; MSOX + MTA ⇄ MSOX•MTA, no additions, pH 8.0, 25 °C) of 2.43 ± 0.02 mM, a Kd ([1]; MSOX + MTA ⇄ MSOX•MTA, plus 667 mM sodium sulfate, pH 8.0, 25 °C, plus 667 mM sodium sulfate) of 1.84 ± 0.01 mM and a Kd ([1]; MSOX•Cl− + MTA ⇄ MSOX•Cl−•MTA, pH 8.0, containing 2.0 M potassium chloride, 25 °C, absorbance at 528 nm) of 4.9 ± 0.07 mM.
